These results are taken from patent US10703748B2, “Diazanaphthalen-3-yl carboxamides and preparation and use thereof” (Samumed, LLC, priority 2017, dated 2020).

One experiment deals with DYRK1A kinase (Homo sapiens, UniProt Q13627). The experiment can be described thus: DYRK1A kinase activity (Ser/Thr 18 peptide Z-lyte FRET assay).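 Further: kinase activity read as coumarin/fluorescein emission ratio after development step, with unphosphorylated and phosphorylated peptide forms setting 0% and 100% controls, values from dose-response curves.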 The class given is biochemical. Conditions: recombinant DYRK1A, 30 μM ATP, one hour at room temperature.
A further experiment concerns the target GSK3β kinase (Homo sapiens, UniProt P49841). Briefly: GSK3β kinase activity (Ser/Thr 09 peptide Z-lyte FRET assay). The class given is biochemical. Particulars: recombinant kinase, 46 μM ATP, one hour at room temperature; read-out: EC50.
Experiment [1] has as its system secreted cytokines TNFα, IL-6 and KC-GRO. The experiment can be described thus: Secreted cytokines in Lipopolysaccharide-stimulated BV-2 cells (Table 9 does not say which cytokine). Type of experiment: cell-based, mouse. Conditions: Mus musculus, BV-2, 5 h; read-out: EC50.
The subject of experiment [2] is SW480 colon carcinoma cells. Briefly: Cell viability assay (CellTiter-Glo). Particulars: Homo sapiens; for EC50: SW480, 96 h; for inhibition at 10 µM: SW480, read-out: percent inhibition at 10 μM. (Cellular ATP, detected with luciferase, serves as a proxy for viable cell number.)
Experiment [3] has as its system Wnt-responsive Sp5-Luc reporter in SW480 colon carcinoma cells. The experiment can be described thus: Screening assay for Wnt activity (Sp5-Luc reporter gene assay). Conditions: Homo sapiens; for EC50: SW480; for inhibition at 10 µM: SW480, read-out: percent inhibition at 10 μM. In general terms: In a reporter assay the amount or activity of a reporter protein is the signal.

The next experiment concerns IL-6. Briefly: IL-6 inhibition in LPS-stimulated human peripheral blood mononuclear cells (HTRF). Conditions: Homo sapiens, PBMC; for EC50: 22 h; for inhibition at 10 µM: read-out: percentage in parentheses after EC50 >10.
Experiment [4] deals with α-smooth muscle actin (aSMA) positive LL29 cells. Briefly: Inhibition of the fibrotic process: αSMA staining in TGF-β1 treated LL29 fibroblasts from IPF patients. Particulars: Homo sapiens, Fibroblast; for EC50: 96 h; for inhibition at 10 µM: read-out: percentage in parentheses after EC50 >10.

Chain of GSK3β kinase (P49841 whole entry): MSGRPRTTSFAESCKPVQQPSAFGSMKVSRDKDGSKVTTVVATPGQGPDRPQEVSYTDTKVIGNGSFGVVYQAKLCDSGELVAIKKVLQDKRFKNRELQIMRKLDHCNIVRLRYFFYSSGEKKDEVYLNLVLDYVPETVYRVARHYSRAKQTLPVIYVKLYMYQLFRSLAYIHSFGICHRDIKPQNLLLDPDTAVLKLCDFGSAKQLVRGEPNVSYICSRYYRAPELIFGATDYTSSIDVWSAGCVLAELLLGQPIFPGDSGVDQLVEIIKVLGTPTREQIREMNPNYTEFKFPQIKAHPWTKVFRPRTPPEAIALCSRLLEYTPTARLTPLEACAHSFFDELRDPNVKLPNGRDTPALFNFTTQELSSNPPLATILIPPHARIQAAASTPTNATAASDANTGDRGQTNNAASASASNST

The term EC50 denotes the concentration that produces a half-maximal response. Consider `CN1CCC(n2cc(C(=O)Nc3ncc4ccc(-c5cnn(C)c5)cc4n3)cn2)CC1` [Compound 1136, N-(7-(1-Methyl-1H-pyrazol-4-yl)quinazolin-2-yl)-1-(1-methylpiperidin-4-yl)-1H-pyrazole-4-carboxamide], for which the half-maximal effective concentration (EC50) at DYRK1A kinase was 13 nM; on GSK3β kinase it was 2530 nM; in experiment [1], 554 nM; in experiment [2], 2.91 µM; in experiment [3], 323 nM; in the experiment with IL-6, 3.2 µM. The 50% effective concentration (EC50) in experiment [4] is 1460 nM.

With `CC(C)OC(=O)N1CCC(n2cc(C(=O)Nc3ncc4ccc(-c5cnn(C)c5)cc4n3)cn2)CC1` [Compound 1141, Isopropyl 4-(4-((7-(1-methyl-1H-pyrazol-4-yl)quinazolin-2-yl)carbamoyl)-1H-pyrazol-1-yl)piperidine-1-carboxylate], the EC50 worked out at 8 nM on DYRK1A kinase; 4060 nM on GSK3β kinase; 177 nM in experiment [1]; 0.717 µM in experiment [2]; 414 nM in experiment [3]; 3.13 µM with IL-6. In experiment [4], this molecule gave an EC50 of 1390 nM.

Turning to `CN1CCN(c2cc(C(=O)Nc3ncc4ccc(-c5cnn(C)c5N)cc4n3)ccn2)CC1` [Compound 1210, N-(7-(5-Amino-1-methyl-1H-pyrazol-4-yl)quinazolin-2-yl)-2-(4-methylpiperazin-1-yl)isonicotinamide], the EC50 is 4 nM on DYRK1A kinase; greater than 10000 nM on GSK3β kinase; 1100 nM in experiment [1]; 0.695 µM in experiment [2]; 478 nM in experiment [3]; 3.61 µM in the experiment with IL-6. Further, the response in experiment [4] was half-maximal at 1400 nM (EC50).

As to `Cn1ncc(-c2ccc3cnc(NC(=O)c4ccnc(N5CCOCC5)c4)nc3c2)c1CN1CCOCC1` [Compound 1220, N-(7-(1-Methyl-5-(morpholinomethyl)-1H-pyrazol-4-yl)quinazolin-2-yl)-2-morpholinoisonicotinamide], the half-maximal effective concentration (EC50) on DYRK1A kinase is 19 nM; on GSK3β kinase it was 5600 nM; in experiment [1] it was 877 nM; in experiment [2], 5.3 µM; in experiment [3], 1820 nM; with IL-6, greater than 10 µM. Further, the concentration for a half-maximal effect (EC50) in experiment [4] is greater than 10000 nM. The inhibition at 10 µM in the experiment on IL-6 was 0%; in experiment [4], 5.5%.

`CN(C)C1CCN(c2cc(C(=O)Nc3ncc4ccc(-c5cn(C)nn5)cc4n3)ccn2)CC1` [Compound 1282, 2-(4-(Dimethylamino)piperidin-1-yl)-N-(7-(1-methyl-1H-1,2,3-triazol-4-yl)quinazolin-2-yl)isonicotinamide]: the EC50 on DYRK1A kinase was 8 nM; on GSK3β kinase, 453 nM; in experiment [1], 1000 nM; in experiment [2], 1.34 µM; in experiment [3], 742 nM; in the experiment with IL-6, greater than 10 µM. In addition, the EC50 in experiment [4] is 2540 nM. Besides, the inhibition at 10 µM in the experiment with IL-6 came to 42.4%.

For `CN1CCCN(c2cc(C(=O)Nc3ncc4ccc(-c5cn(C)nn5)cc4n3)ccn2)CC1` [Compound 1285, 2-(4-Methyl-1,4-diazepan-1-yl)-N-(7-(1-methyl-1H-1,2,3-triazol-4-yl)quinazolin-2-yl)isonicotinamide], the EC50 is 13 nM at DYRK1A kinase; 832 nM at GSK3β kinase; 6800 nM in experiment [1]; 3.14 µM in experiment [2]; 1650 nM in experiment [3]; greater than 10 µM in the experiment with IL-6. In addition, in experiment [4], the EC50 was greater than 10000 nM. The inhibition at 10 µM in the experiment with IL-6 was 2.1%; in experiment [4], 5.5%.

For the molecule `Cn1cnnc1-c1ccc2cnc(NC(=O)C3CCN(CCC(F)(F)F)CC3)nc2c1` [Compound 1297, N-(7-(4-Methyl-4H-1,2,4-triazol-3-yl)quinazolin-2-yl)-1-(3,3,3-trifluoropropyl)piperidine-4-carboxamide], the EC50 on DYRK1A kinase was 57 nM; at GSK3β kinase, 38 nM; in experiment [1], no less than 10000 nM; in experiment [2], greater than 10 µM; in experiment [3], greater than 10000 nM; in the experiment on IL-6, greater than 10 µM. Also, in experiment [4], the concentration for a half-maximal effect (EC50) is greater than 10000 nM. For the same molecule, the inhibition at 10 µM in experiment [2] came out at 35.1%; in experiment [3], 39.2%; in the experiment on IL-6, 4.3%; in experiment [4] it was 42.1%.

Consider `Cc1ncc(C(=O)Nc2ncc3ccc(-c4cnc(C)n4C)cc3n2)s1` [Compound 1353, N-(7-(1,2-Dimethyl-1H-imidazol-5-yl)quinazolin-2-yl)-2-methylthiazole-5-carboxamide], for which the EC50 is 11 nM on DYRK1A kinase; 1350 nM at GSK3β kinase; 812 nM in experiment [1]; 4.48 µM in experiment [2]; 2180 nM in experiment [3]; greater than 10 µM with IL-6. This molecule returned an EC50 in experiment [4] greater than 10000 nM. In addition, the inhibition at 10 µM came out at 4.1% in the experiment with IL-6 and 42% in experiment [4].

For `Cn1cncc1-c1ccc2cnc(NC(=O)c3cccc(CN4CCCC4)c3)nc2c1` [Compound 1356, N-(7-(1-Methyl-1H-imidazol-5-yl)quinazolin-2-yl)-3-(pyrrolidin-1-ylmethyl)benzamide], the EC50 at DYRK1A kinase is 5 nM; at GSK3β kinase, 2780 nM; in experiment [1] it was 1100 nM; in experiment [2], 8.6 µM; in experiment [3] it was 2570 nM; with IL-6 it was 8.06 µM. The molecule also returned a concentration giving a half-maximal response (EC50) in experiment [4] of 3600 nM.

Regarding `Cn1cncc1-c1ccc2cnc(NC(=O)c3ccc4c(c3)CNC4)nc2c1` [Compound 1383, N-(7-(1-Methyl-1H-imidazol-5-yl)quinazolin-2-yl)isoindoline-5-carboxamide], the concentration for a half-maximal effect (EC50) at DYRK1A kinase was 2 nM; on GSK3β kinase it was 453 nM; in experiment [1], 6800 nM; in experiment [2], greater than 10 µM; in experiment [3], greater than 10000 nM; in the experiment with IL-6, greater than 10 µM. The molecule further gave an EC50 in experiment [4] of 3290 nM. Also, the inhibition at 10 µM in experiment [2] was 26.1%; in experiment [3], 15.9%; with IL-6, 3.1%.

For the molecule `Cc1ncc(-c2ccc3cnc(NC(=O)[C@H]4CC[C@H](CO)CC4)nc3c2)o1` [Compound 1447, trans-4-(Hydroxymethyl)-N-(7-(2-methyloxazol-5-yl)quinazolin-2-yl)cyclohexane-1-carboxamide], the concentration giving a half-maximal response (EC50) at DYRK1A kinase was 56 nM; on GSK3β kinase, 952 nM; in experiment [1], 605 nM; in experiment [2] it was greater than 10 µM; in experiment [3] it was 617 nM; with IL-6, greater than 10 µM. This molecule had an EC50 in experiment [4] greater than 10000 nM. Further, the inhibition at 10 µM is 8.5% in experiment [2], 0% with IL-6 and 35.5% in experiment [4].

Consider `CN1CCC(Oc2cccc(C(=O)Nc3ncc4ccc(-c5cnco5)cc4n3)c2)CC1` [Compound 1497, 3-((1-Methylpiperidin-4-yl)oxy)-N-(7-(oxazol-5-yl)quinazolin-2-yl)benzamide], for which the EC50 was 30 nM at DYRK1A kinase; greater than 10000 nM at GSK3β kinase; 334 nM in experiment [1]; greater than 10 µM in experiment [2]; greater than 10000 nM in experiment [3]; greater than 10 µM in the experiment on IL-6. The molecule further came in with a 50% effective concentration (EC50) in experiment [4] of 2430 nM. Also, the inhibition at 10 µM in experiment [2] stood at 23.7%; in experiment [3], 41.7%; with IL-6 it was 4.8%.

For the molecule `O=C(Nc1ncc2ccc(-c3cncs3)cc2n1)[C@H]1CC[C@H](CN2CC(F)C2)CC1` [Compound 1519, trans-4-((3-fluoroazetidin-1-yl)methyl)-N-(7-(thiazol-5-yl)quinazolin-2-yl)cyclohexane-1-carboxamide], the 50% effective concentration (EC50) on DYRK1A kinase was 11 nM; at GSK3β kinase, 772 nM; in experiment [1], 69 nM; in experiment [2], greater than 10 µM; in experiment [3], 2280 nM; with IL-6, greater than 10 µM. In experiment [4], this molecule displayed a concentration for a half-maximal effect (EC50) of 2400 nM. For the same molecule, the results for the inhibition at 10 µM (in experiment [2]; with IL-6) were 17.1% and 2.9%, respectively.

Consider `O=C(Nc1ncc2ccc(-c3cncs3)cc2n1)C1CCN(C2COC2)CC1` [Compound 1523, 1-(Oxetan-3-yl)-N-(7-(thiazol-5-yl)quinazolin-2-yl)piperidine-4-carboxamide], for which the half-maximal effective concentration (EC50) at DYRK1A kinase is 47 nM; at GSK3β kinase it was 1380 nM; in experiment [1], 1800 nM; in experiment [2], greater than 10 µM; in experiment [3], greater than 10000 nM; with IL-6 it was greater than 10 µM. The concentration giving a half-maximal response (EC50) in experiment [4] is greater than 10000 nM. For the same molecule, the inhibition at 10 µM is 15.1% in experiment [2], 13.7% in experiment [3], 6.2% in the experiment with IL-6 and 24.9% in experiment [4].

Turning to `CN1CCN(c2cc(C(=O)Nc3ncc4ccc(-c5cnc(N)s5)cc4n3)ccn2)CC1` [Compound 1589, N-(7-(2-aminothiazol-5-yl)quinazolin-2-yl)-2-(4-methylpiperazin-1-yl)isonicotinamide], the EC50 on DYRK1A kinase turned out to be 5 nM; on GSK3β kinase it was 9990 nM; in experiment [1], 221 nM; in experiment [2], 0.331 µM; in experiment [3], 184 nM; in the experiment with IL-6, 2.88 µM. In experiment [4], this molecule showed an EC50 of 911 nM.
